# Measurements from ChEMBL document CHEMBL1201862, “PubChem BioAssay data set” (2004).
# Active and inactive are the calls of the source.
# How the values were obtained:
# [1] = biological target: Protein-tyrosine kinase 2-beta (Homo sapiens, UniProt Q14289);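 also: potency of inhibitors of PYK2 kinase phosphorylation of poly-GT substrate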
# Nonstructural protein 1 = Nonstructural protein 1 (Influenza A virus, UniProt Q194T2); assay type: functional, Influenza A virus (A/California/07/2009(H1N1))
# [2] = general mammalian cell viability loss – activator set, cherry-pick, cytotoxicity control for miR-122 modulator project, dose response (AID 720690); assay type: functional, cell-based;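 also: HEK293T human cells scored for general mammalian cytotoxicity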
# [3] = general mammalian cell viability loss – inhibitor set, cherry-pick, set 2, cytotoxicity control for miR-122 modulator project, dose response (AID 720697); assay type: functional, cell-based
# [4] = biological target: Metabotropic glutamate receptor 3 (Rattus norvegicus, UniProt P31422); assay: inhibition of rat mGlu3 glutamate signaling – HEK/GIRK cells, thallium flux, dose response (AID 651839); assay type: functional
# Metabotropic glutamate receptor 3, sequence (P31422 whole entry): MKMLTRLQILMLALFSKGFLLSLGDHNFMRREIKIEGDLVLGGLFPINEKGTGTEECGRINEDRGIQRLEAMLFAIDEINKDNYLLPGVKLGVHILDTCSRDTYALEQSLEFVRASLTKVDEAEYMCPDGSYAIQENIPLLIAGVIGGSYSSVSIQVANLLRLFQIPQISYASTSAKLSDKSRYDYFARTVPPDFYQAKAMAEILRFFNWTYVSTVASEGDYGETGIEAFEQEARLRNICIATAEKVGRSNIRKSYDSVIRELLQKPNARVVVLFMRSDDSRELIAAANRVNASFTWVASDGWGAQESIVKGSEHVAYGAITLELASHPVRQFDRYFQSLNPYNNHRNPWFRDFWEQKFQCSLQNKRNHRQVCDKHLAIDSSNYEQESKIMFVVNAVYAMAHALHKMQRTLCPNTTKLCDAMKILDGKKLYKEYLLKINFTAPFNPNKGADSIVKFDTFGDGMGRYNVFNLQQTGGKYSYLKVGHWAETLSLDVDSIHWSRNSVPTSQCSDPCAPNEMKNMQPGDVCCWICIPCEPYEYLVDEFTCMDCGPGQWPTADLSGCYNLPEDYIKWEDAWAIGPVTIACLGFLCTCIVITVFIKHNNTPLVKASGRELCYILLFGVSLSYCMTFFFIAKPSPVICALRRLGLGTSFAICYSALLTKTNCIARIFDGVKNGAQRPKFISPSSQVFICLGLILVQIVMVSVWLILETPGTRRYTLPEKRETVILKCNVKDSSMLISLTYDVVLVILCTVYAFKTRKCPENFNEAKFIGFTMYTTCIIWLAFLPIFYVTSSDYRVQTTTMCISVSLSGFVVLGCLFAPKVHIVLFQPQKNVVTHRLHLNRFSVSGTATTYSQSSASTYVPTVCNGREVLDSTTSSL
# [5] = biological target: Mitogen-activated protein kinase 10 (Homo sapiens, UniProt P53779); assay: Dose response biochemical screening assay for inhibitors of c-Jun N-Terminal Kinase 3 (JNK3). [Related pubchem assays: 746 ]
# Mitogen-activated protein kinase 10, sequence (P53779 whole entry): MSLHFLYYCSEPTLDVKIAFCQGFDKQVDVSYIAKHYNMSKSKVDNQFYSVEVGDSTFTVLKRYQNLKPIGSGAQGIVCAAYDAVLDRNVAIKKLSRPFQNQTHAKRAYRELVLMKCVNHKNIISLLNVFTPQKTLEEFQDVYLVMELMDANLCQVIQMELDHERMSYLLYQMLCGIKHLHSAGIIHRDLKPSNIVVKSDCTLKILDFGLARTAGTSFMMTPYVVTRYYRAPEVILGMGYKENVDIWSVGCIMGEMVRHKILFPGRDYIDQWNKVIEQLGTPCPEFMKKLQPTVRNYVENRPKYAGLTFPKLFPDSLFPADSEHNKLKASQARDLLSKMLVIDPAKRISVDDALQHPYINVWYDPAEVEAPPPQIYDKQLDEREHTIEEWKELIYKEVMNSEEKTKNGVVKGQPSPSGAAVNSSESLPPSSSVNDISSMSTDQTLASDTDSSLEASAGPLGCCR
# [6] = biological target: T1, Zinc finger protein mex-5 (Caenorhabditis elegans, UniProt Q9XUB2); assay: potency of MEX-5 RNA-binding blockers – biochemical, C. elegans, fluorescence polarization, dose response (AID 1960)
# T1 sequence (Q9XUB2 whole entry): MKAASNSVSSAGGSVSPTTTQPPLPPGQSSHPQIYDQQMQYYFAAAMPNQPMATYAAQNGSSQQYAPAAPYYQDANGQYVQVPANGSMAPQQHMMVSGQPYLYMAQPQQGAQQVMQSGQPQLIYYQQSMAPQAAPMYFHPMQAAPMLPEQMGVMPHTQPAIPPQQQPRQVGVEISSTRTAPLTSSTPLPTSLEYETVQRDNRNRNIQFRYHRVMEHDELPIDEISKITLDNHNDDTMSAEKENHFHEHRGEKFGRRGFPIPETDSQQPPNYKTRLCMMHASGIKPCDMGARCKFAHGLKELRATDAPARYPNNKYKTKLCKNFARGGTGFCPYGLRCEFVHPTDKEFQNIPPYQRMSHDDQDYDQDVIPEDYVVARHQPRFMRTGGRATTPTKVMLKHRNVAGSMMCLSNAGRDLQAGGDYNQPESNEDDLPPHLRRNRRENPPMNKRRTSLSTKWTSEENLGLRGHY
# [7] = biological target: T2, RNA-binding protein pos-1 (Caenorhabditis elegans, UniProt G5EF15); assay: disruptors of C. elegans POS-1 RNA interaction – biochemical, fluorescence polarization, dose response (AID 1964);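 also: purified POS-1 fused to maltose binding protein made in E. coli; potency of compounds blocking POS-1 binding to fluorescent RNA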
# T2 sequence (G5EF15 whole entry): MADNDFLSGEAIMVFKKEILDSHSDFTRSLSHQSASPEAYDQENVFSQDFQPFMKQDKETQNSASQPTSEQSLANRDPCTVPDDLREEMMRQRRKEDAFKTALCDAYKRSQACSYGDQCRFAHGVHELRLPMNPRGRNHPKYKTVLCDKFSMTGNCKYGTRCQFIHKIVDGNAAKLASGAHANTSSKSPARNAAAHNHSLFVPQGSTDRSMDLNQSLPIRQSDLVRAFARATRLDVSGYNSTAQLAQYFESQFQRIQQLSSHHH
# [8] = biological target: COUP transcription factor 2 (Homo sapiens, UniProt P24468); assay: Luminescence-based cell-based high throughput dose response assay to identify inhibitors of COUP-TFII (NR2F2).; assay type: functional;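 also: HEK293 cells transiently cotransfected with COUP-TFII expression vector and reporter; luciferase reporter luminescence driven by COUP-TFII from the pX2-168 reporter plasmid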
# [9] = biological target: 5-hydroxytryptamine receptor 1A (Homo sapiens, UniProt P08908); assay type: functional
# 5-hydroxytryptamine receptor 1A, sequence (P08908 whole entry): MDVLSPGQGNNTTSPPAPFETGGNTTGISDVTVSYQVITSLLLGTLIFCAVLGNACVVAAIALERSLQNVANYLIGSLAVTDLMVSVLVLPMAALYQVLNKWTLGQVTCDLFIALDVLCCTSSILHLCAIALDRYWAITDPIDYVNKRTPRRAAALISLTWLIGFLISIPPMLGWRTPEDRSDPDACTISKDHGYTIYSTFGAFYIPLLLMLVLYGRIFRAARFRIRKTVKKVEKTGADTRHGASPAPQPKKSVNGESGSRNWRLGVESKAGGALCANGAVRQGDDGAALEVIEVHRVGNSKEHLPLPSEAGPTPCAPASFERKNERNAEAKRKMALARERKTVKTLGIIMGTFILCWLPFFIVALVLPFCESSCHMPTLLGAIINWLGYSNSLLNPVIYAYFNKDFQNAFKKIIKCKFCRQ
# [10] = biological target: T3, Low molecular weight phosphotyrosine protein phosphatase (Homo sapiens, UniProt P24666); assay: inhibition of LMPTP-A enzymatic activity – biochemical, OMFP substrate, fluorescence intensity, set 2, dose response (AID 743307); assay type: functional
# T3 sequence (P24666 whole entry): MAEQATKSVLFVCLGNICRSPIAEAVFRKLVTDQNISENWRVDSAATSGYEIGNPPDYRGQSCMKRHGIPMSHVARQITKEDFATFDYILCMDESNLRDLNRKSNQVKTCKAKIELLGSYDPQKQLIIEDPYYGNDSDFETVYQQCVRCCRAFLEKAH
# [11] = biological target: T3, Low molecular weight phosphotyrosine protein phosphatase; assay: inhibition of human LMPTP enzyme activity – biochemical, absorbance, pNPP substrate, LMPTP-A isoform, set 2, orthogonal assay, dose response (AID 743308); assay type: functional
# Kallikrein-7 = Kallikrein-7 (Homo sapiens, UniProt P49862); assay: Fluorescence Intensity-based biochemical primary high throughput dose response assay to identify activators of kallikrein-7 (K7) zymogen.
# Kallikrein-7, sequence (P49862 whole entry): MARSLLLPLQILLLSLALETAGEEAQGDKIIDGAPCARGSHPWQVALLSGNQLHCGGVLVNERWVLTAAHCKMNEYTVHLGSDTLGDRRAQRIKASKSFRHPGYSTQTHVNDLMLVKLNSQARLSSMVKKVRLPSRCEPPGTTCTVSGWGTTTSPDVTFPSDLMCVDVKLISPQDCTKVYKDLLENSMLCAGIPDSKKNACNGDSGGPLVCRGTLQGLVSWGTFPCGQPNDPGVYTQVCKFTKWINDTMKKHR
# [12] = viability loss in human Jurkat cells – cell-based, luminescence, cytotoxicity control for P. falciparum gametocyte viability project, dose response (AID 1117277); assay type: functional;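 also: potency reflects loss of cellular ATP meaning fewer viable cells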
# [13] = viability inhibitors of stage V gametocytes – luminescence, dose response (AID 1117278); assay type: functional, cell-based;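 also: gametocytes exposed to compound for 24 hours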
# [14] = NIH3T3 cell viability loss – ATP luminescence, mouse fibroblasts, counter-screen, dose response (AID 2010); assay type: functional, cell-based;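 also: cells exposed to compound for about 90 hours before reading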
# Albumin = Albumin (Bos taurus, UniProt P02769); assay: Counterscreen for inhibitors of T-cell receptor (TCR)-CD3 interaction: Fluorescence-based biochemical high throughput dose response assay to identify inhibitors of T-cell receptor (TCR)-CD3 interaction using a TAMRA-labeled BSA probe.; assay type: functional
# Albumin, sequence (P02769 whole entry): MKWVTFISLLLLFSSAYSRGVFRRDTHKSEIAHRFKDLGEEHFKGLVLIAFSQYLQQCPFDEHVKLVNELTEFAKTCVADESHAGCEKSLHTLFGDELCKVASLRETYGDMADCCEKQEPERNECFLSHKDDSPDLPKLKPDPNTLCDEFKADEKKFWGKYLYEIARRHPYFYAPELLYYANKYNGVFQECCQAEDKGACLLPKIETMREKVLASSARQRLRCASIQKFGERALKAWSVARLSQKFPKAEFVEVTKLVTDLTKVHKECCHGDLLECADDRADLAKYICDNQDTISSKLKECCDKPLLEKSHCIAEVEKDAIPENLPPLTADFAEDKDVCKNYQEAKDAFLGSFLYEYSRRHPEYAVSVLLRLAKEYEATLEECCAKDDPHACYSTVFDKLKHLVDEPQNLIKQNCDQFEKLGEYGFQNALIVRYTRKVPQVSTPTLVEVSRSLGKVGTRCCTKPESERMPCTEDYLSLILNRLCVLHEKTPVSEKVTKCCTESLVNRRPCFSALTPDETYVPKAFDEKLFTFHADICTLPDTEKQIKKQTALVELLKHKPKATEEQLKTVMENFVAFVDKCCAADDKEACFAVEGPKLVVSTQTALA
# [15] = Trypanosoma cruzi growth suppression in host cells – NIH3T3 host cells, beta-gal luminescence, confirmation (AID 2044); assay type: functional, cell-based;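 also: intracellular parasites grown in NIH/3T3 mouse fibroblasts as host cells; luminescent beta-galactosidase reporter signal from transgenic T. cruzi replicating inside host cells; inhibitors lower the luminescence signal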
# [16] = glucagon-like peptide-1 release potency in STC-1, concentration-response, half-maximal inhibitory concentration in the STC-1 line (AID 1117345); assay type: functional, cell-based
# [17] = Potency on glucagon-like peptide 1 release, dose-response in NCI-H716 cell line, half maximal inhibitory concentration (AID 1117344); assay type: functional, cell-based
# Galanin receptor type 3 = biological target: T4, Galanin receptor type 3 (Homo sapiens, UniProt O60755); assay: Fluorescence-based cell-based primary high throughput dose response assay to identify antagonists of the Galanin Receptor 3 (GalR3).; assay type: functional
# T4 sequence (O60755 whole entry): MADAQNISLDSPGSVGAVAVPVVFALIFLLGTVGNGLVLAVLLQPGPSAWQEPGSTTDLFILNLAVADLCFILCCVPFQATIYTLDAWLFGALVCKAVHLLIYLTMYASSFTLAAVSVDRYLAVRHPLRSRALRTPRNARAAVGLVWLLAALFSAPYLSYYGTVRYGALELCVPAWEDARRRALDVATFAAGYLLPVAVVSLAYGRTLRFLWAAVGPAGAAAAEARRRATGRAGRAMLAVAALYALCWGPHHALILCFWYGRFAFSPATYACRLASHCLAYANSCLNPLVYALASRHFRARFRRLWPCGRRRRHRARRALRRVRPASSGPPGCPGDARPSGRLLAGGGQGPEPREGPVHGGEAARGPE
# cells [18] = assay type: functional, cell-based; settings: HEK-CNG
# [19] = potency of ADAM10 substrate cleavage blockers – biochemical, QFRET, dose response (AID 743254);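 also: ADAM10 enzyme with the DM2 quenched FRET peptide as substrate; EDANS fluorescence gain as the protease cuts the substrate; inhibitor potency against ADAM10 proteolytic activity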
# [20] = viability loss of HPDE-C7K cells – cell-based, fluorescence, HTS, primary screen (AID 431); assay type: functional; settings: Homo sapiens
# [21] = HPDE-C7 pancreatic duct cell viability loss – fluorescence, HTS (AID 430); assay type: functional, cell-based; settings: Homo sapiens
# Cytochrome P450 3A4 = Cytochrome P450 3A4 (Homo sapiens, UniProt P08684);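 also: CYP3A4 tested as one member of a cytochrome P450 panel screen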
# Cytochrome P450 2C19 = Cytochrome P450 2C19 (Homo sapiens, UniProt P33261); assay: Cytochrome panel assay with activity outcomes. Panel member name: p450-cyp2c19 Compounds with AC50 equal or less than 10 uM are considered active; assay type: functional; settings: read-out: AC50
# Ephrin type-A receptor 4 = Ephrin type-A receptor 4 (Mus musculus, UniProt Q03137); assay: EphA4 ligand-binding antagonists – biochemical, colorimetric, mouse EphA4, primary screen (AID 689); assay type: functional
# Ephrin type-A receptor 4, sequence (Q03137 whole entry, the tested form may be a part): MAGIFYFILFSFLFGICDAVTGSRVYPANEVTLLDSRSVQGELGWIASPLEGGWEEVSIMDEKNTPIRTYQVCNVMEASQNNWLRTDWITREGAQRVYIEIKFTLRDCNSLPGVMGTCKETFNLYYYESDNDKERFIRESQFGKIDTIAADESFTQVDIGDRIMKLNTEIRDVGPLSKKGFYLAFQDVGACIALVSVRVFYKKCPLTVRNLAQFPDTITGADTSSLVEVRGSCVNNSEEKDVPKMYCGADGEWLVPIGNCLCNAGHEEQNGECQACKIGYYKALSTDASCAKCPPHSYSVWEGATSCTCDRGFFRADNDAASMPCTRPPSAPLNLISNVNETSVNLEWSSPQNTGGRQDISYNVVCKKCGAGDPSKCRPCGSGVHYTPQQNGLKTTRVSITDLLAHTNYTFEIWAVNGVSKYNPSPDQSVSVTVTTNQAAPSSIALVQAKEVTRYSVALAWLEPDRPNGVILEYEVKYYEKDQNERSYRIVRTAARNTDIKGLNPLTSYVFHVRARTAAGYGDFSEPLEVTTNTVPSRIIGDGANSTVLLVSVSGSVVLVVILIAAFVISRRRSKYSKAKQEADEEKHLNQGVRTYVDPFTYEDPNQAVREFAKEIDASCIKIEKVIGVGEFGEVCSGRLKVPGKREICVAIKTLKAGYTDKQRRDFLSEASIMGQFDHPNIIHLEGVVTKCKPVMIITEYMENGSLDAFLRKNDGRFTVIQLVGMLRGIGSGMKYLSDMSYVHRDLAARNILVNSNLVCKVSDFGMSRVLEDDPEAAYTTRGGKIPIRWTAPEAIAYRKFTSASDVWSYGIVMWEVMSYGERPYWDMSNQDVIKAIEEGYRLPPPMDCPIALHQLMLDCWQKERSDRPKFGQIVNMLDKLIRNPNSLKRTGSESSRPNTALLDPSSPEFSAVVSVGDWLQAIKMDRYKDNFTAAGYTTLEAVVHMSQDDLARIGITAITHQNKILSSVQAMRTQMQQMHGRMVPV
# [22] = biological target: T5, Oxysterols receptor LXR-beta (Homo sapiens, UniProt P55055); assay type: functional, cell-based;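 also: Cell-based luminescence dose-response assay of agonist activity at LXR, run as a confirmatory counterscreen to a daf-12 agonist screen; HEK293 cells with Gal4-LXR fusion and GAL4-driven luciferase reporter; agonist potency from rising luciferase signal of a Gal4-LXR reporter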
# T5 sequence (P55055 whole entry): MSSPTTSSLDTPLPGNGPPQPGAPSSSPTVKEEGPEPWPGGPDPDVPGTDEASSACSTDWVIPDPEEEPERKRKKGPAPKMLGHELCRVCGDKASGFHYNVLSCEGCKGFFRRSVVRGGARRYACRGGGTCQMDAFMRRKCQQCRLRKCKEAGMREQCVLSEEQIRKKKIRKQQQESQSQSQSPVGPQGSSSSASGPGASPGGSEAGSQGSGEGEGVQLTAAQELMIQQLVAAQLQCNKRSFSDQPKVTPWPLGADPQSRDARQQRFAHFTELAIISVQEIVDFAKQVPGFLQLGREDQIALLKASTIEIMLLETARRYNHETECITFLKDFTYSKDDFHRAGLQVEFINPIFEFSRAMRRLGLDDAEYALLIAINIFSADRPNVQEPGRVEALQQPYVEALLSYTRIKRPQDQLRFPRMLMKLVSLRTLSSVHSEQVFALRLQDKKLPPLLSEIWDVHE
# cells [23] = assay: cells
# cells [24] = assay: cells; remark: listed apart in the source
# Paired box protein Pax-8 = Paired box protein Pax-8 (Homo sapiens, UniProt Q06710); assay: PAX8 transcriptional activity inhibition in RMG-I – RMG-I cells, luciferase, cherry-pick, dose response (AID 687027); assay type: functional, cell-based;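 also: luciferase reporter driven by Pax8 target thyroperoxidase promoter measured by SteadyGlo luminescence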
# [25] = OVCAR-3 cell viability loss – plate reader, dry powder samples, PAX8 inhibitor project, dose response (AID 743044); assay type: functional, cell-based
# [26] = OVCAR8 cell viability loss – plate reader, dry powder samples, PAX8 project, dose response (AID 743197); assay type: functional, cell-based; settings: OVCAR-8
# [27] = biological target: Voltage-dependent T-type calcium channel subunit alpha-1H (Homo sapiens, UniProt O95180); assay type: functional;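 also: channel activity triggered by adding a high calcium stimulation buffer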
# Protein-tyrosine kinase 2-beta, sequence (Q14289 whole entry): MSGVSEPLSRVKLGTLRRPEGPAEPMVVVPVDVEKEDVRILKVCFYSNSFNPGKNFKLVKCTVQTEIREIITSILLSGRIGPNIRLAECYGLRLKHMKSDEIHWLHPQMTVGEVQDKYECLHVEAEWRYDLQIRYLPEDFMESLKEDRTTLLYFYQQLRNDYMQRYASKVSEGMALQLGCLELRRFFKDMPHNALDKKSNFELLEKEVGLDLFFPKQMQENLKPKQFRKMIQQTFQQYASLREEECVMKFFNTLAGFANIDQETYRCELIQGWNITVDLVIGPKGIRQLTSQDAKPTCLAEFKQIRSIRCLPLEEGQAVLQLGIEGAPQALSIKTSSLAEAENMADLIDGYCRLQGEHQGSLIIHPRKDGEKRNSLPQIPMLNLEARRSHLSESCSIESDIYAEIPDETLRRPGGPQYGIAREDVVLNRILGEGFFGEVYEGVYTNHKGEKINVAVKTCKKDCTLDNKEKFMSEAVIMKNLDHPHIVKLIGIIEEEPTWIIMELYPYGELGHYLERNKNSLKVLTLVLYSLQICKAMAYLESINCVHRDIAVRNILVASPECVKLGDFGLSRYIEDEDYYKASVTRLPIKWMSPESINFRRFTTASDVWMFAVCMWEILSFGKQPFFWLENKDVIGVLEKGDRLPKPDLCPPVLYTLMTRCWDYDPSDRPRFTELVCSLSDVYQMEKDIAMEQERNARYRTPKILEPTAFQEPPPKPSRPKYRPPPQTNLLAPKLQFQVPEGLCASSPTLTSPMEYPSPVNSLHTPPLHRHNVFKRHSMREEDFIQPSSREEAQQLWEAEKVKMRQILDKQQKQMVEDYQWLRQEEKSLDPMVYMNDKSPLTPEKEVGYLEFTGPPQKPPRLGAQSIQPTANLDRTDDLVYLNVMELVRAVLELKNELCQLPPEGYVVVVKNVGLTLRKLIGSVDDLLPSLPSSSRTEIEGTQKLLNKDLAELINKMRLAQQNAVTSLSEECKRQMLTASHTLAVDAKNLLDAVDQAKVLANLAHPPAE
# Nonstructural protein 1, sequence (Q194T2 whole entry): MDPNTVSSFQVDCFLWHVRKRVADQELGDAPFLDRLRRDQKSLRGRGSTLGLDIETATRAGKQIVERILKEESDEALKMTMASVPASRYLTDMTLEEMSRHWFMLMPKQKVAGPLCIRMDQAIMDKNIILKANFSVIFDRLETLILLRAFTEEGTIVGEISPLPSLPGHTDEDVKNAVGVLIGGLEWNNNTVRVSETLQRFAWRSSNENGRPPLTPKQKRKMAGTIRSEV
smiles,measurement,setting,value
CN(C)c1cc2c(c(N(C)C)c1)C(=O)c1ccccc1C2=O,IC50,[1],2.13 µM (active)
same,IC50,Nonstructural protein 1,14.1 µM (active)
CC(C)N(C[C@@H]1N[C@@H](CO)[C@@H]1c1ccccc1)S(=O)(=O)c1ccccc1,AC50,[2],32.2 µM (active)
same,AC50,[3],0.473 µM (active)
O=C(c1ccc2cc(-c3ccccc3OCc3ccccc3)ccc2c1)N1CCCC(CO)C1 (configuration not stated),IC50,[4],9.35 µM (active)
COC1(OC)N=C(N)C2(C#N)C(c3ccc4c(c3)OCO4)C12C#N (configuration not stated),IC50,[5],> 93.1 µM (not active)
same,EC50,[6],64.3 µM (active)
same,EC50,[7],59.9 µM (active)
CCOC(=O)N1CCC(Nc2ncnc3c2cnn3-c2ccc(C)cc2C)CC1,IC50,[8],13.6 µM (inactive)
CCc1nn(C(C)C(=O)NCCN2CCN(c3cccc(C)c3C)CC2)c(=O)c2cc3occc3n12 (configuration not stated),EC50,[9],> 50 µM (not active)
c1ccc(-c2nc(NCCN3CCOCC3)c3ccccc3n2)cc1,IC50,[10],25.4 µM (inactive)
same,IC50,[11],53.5 µM (inactive)
Cc1cccc2c(C(=O)O)c3cccc(C)c3nc12,EC50,Kallikrein-7,> 69.5 µM (inactive)
Cn1cc(/C(Cc2ccccc2)=N\O)c2ccccc21,EC50,[9],> 50 µM (not active)
CCOC(=O)CC1CCCCN1Cc1cn(C)nc1-c1ccc2c(c1)OCCO2 (configuration not stated),IC50,[12],> 83.3 µM (inactive)
same,IC50,[13],> 109 µM (inactive)
O=C(CSc1nc2ccccc2[nH]1)NCc1ccco1,IC50,[12],> 83.3 µM (inactive)
same,IC50,[13],> 109 µM (inactive)
Fc1cc2nccnc2cc1N1CCSCC1,IC50,[5],50.2 µM (not active)
COc1ccc(NS(=O)(=O)c2cc(NC(=O)/C=C/c3cc(OC)c(OC)c(OC)c3)ccc2N2CCCCC2)cc1,EC50,[14],> 60 µM (not active)
same,IC50,Albumin,> 94.1 µM (inactive)
same,EC50,[15],1.63 µM (active)
CC(=O)OC(C)C[N+](C)(C)C (configuration not stated) [METHACHOLINE CHLORIDE],IC50,[16],> 40 µM (inactive)
same,IC50,[17],> 40 µM (inactive)
same,IC50,Galanin receptor type 3,7.36 µM (active)
same,EC50,cells [18],> 30 µM (inactive)
O=C(NCCCN1CCOCC1)c1cc2nc(-c3ccco3)cc(C(F)(F)F)n2n1,EC50,Kallikrein-7,> 69.5 µM (inactive)
COc1ccc(-c2[nH]nc(C(F)(F)F)c2-c2cc3ccccc3o2)c(O)c1,IC50,[19],> 69.5 µM (inactive)
same,EC50,[20],3.68 µM (active)
same,EC50,[21],3.24 µM (active)
COc1ncc(-c2ccc3cc(C(=O)N4CCCC(CO)C4)ccc3c2)cn1 (configuration not stated),IC50,[4],2.17 µM
CC1Cc2ccccc2N1Cc1nc(O)c2ccc(C(F)(F)F)cc2n1 (configuration not stated),AC50,Cytochrome P450 3A4,25.1 µM (inconclusive)
same,AC50,Cytochrome P450 2C19,0.0282 µM (inconclusive)
same,IC50,Ephrin type-A receptor 4,> 100 µM (not active)
c1ccc(-c2nc(NCCN3CCCCC3)c3ccccc3n2)cc1,IC50,[10],64.3 µM (inactive)
same,IC50,[11],> 80 µM (inactive)
Cc1cc(C(=O)Cn2nnc3ccccc3c2=O)c(C)n1Cc1cccs1,EC50,[22],> 67.6 µM (inactive)
same,EC50,cells [23],> 67.6 µM (inactive)
COc1ccc(/C=C/CN2CCCC(CCC(=O)NCc3ccc(F)c(F)c3)C2)cc1 (configuration not stated),EC50,[14],> 60 µM (not active)
same,EC50,cells [24],0.037 µM (active)
same,EC50,[15],< 0.1 µM (active)
C[C@@H]1CN([C@H](C)CO)C(=O)c2cc(NC(=O)Cc3ccccc3)ccc2O[C@@H](C)CCCCO[C@H]1CN(C)Cc1ccc(C(F)(F)F)cc1,AC50,[2],13.8 µM (active)
same,AC50,[3],0.795 µM (active)
same,AC50,Paired box protein Pax-8,3.98 µM (active)
same,AC50,[25],3.83 µM (active)
same,AC50,[26],63.1 µM (active)
CCOC(=O)[C@@H](N)CS,IC50,[16],14.3 µM (inactive)
same,IC50,[17],> 40 µM (inactive)
CCCc1nc2c(C)cc(Br)cn2c1Cc1ccc(C)cc1,EC50,[22],> 67.5 µM (inactive)
same,EC50,cells [23],> 67.5 µM (inactive)
Cc1cccc2cc(/C=C3\N=C(c4ccccc4)OC3=O)c(N3CCOCC3)nc12,EC50,[27],0.685 µM (active)
same,IC50,Ephrin type-A receptor 4,1.35 µM (active)
